This is an account of results in patent US12570752B2, “Combination therapy with an anti BCMA antibody and a gamma secretase inhibitor” (priority 2019, dated 2026).

For series [1] the following is noted: cited from earlier work.
For series [2], the system named is multiple myeloma cell line L363. Kind of series: L363 cell viability, nirogacestat pre-treatment then belantamab mafodotin or controls. Particulars: nirogacestat pre-treatment 24 hours, then treatment for additional 72 hours. In kind it is cell-based.
For series [3] the following is noted: cited from earlier work. This is another data set of the same source.

Take `CCC[C@H](N[C@H]1CCc2cc(F)cc(F)c2C1)C(=O)Nc1cn(C(C)(C)CNCC(C)(C)C)cn1` [nirogacestat, (S)-2-(((S)-6,8-difluoro-1,2,3,4-tetrahydronaphthalen-2-yl)amino)-N-(1-(2-methyl-1-(neopentylamino)propan-2-yl)-1H-imidazol-4-yl)pentanamide]: in series [1] (compared with RO4929097 or MK-0752 (Messersmith, 2015)), the “incidence of dose-limiting diarrhea and elevated liver enzymes” value is recorded as “does not appear to be as high”. The “safety profile versus other gamma-secretase inhibitors” value in series [1] (in vivo) is “better safety profile”. Also, in series [1] (unlike e.g. semagacestat (Messersmith, 2015; Henley, 2014)), the “incidence of secondary primary malignancies (SPM) or treatment-emergent infections” value is recorded as “there does not seem to be an increased incidence”. Also, the “effect on cell viability” value in series [2] is “no effect”. In addition, the “time to pharmacodynamically active plasma levels” value in series [3] (after treatment initiation) is < 48 h. For the same compound, in series [3] (between 20 and 330 mg BID), the exposure versus dose entry was “dose-proportional”. In addition, in series [3] (repeated BID administration), the time to steady-state was ≤ 8 days.

With Belantamab, in series [2], the “effect on cell viability” value is given as “no effect”.
